Laboratory results reported in patent publication US11730712B2, “Functionalized long-chain hydrocarbon mono- and di-carboxylic acids and derivatives thereof, and their use for the prevention or treatment of disease” (ESPERVITA THERAPEUTICS, INC., priority 2021, dated 2023).

Test system: liver fibrosis gene panel (770 genes)
Experiment: Nanostring nCounter Fibrosis panel gene expression in liver of DEN-injected mice
Assay type: in vivo, mouse
Method: Nanostring Analysis. RNA was extracted from paired liver and tumor tissue from vehicle, Compound I-1 (100 mg/kg) and Compound I-32 (100 mg/kg) treated mice using an RNeasy kit (Qiagen, Calif., USA) as per manufacturer's protocol. All RNA samples passed the BioAnalyzer quality control test. The expression of target genes in liver and tumor were analyzed using the nCounter Fibrosis and Cancer Panel (NanoString Technologies, Inc., WA, USA), respectively according to manufacturer's protocol at the McMaster Genomics Facility. Technical and biological normalization against global geometric mean was performed in nSolver 4.0 software (NanoString Technologies). Technical normalization was performed in the nSolver software (version 4.0.70) by normalizing sample target raw counts to the geometric mean of positive control spike-ins. Biological normalization was performed by normalizing sample target raw counts to the geometric mean of selected housekeeping genes (Ppia, Nubp1, Nol7, Armh3, Rplp0, Cnot10, Pgk1, and Acad9). Pathway scores were calculated as the first principal component of the normalized expression values for all genes in each pathway and samples were compiled according to experimental groups to determine average pathway scores. Statistical significance was calculated between experimental groups using multiple t-tests and p-values were corrected for multiple comparisons using Benjamin-Hochberg false discovery rate.
Molecular analysis. To identify the pathways modulated in the liver and tumor tissue, nanostring analysis of fibrosis and cancer, pathways, respectively were completed in an n=8 mice treated with vehicle or Compound I-32 or Compound I-1 at 100 mg/kg.

CC(C)(CCCCc1cccc(CCCCC(C)(C)C(=O)O)c1)C(=O)O [Compound I-32, 6-[3-(5-carboxy-5-methylhexyl)-phenyl]-2,2-dimethylhexanoic acid]
number of genes downregulated (100 mg/kg, 4 weeks): 159
number of genes upregulated (100 mg/kg, 4 weeks): 71
number of genes with altered expression relative to vehicle controls (770 genes measured) (100 mg/kg, 4 weeks): 231
Adh1 Log2FC (NM_007409, 100 mg/kg, vs vehicle): 0.536
Aldh3a2 Log2FC (NM_007437, 100 mg/kg, vs vehicle): 0.869
Prdx6 Log2FC (NM_007453, 100 mg/kg, vs vehicle): −0.595
Apoa4 Log2FC (NM_007468, 100 mg/kg, vs vehicle): −3.4
Atp6v1e1 Log2FC (NM_007510, 100 mg/kg, vs vehicle): 0.153
Casp7 Log2FC (NM_007611, 100 mg/kg, vs vehicle): −0.31
Cd36 Log2FC (NM_007643, 100 mg/kg, vs vehicle): 1.02
Cdh2 Log2FC (NM_007664, 100 mg/kg, vs vehicle): −0.165
Cebpa Log2FC (NM_007678, 100 mg/kg, vs vehicle): −0.413
Cfi Log2FC (NM_007686, 100 mg/kg, vs vehicle): −0.395
Chil1 Log2FC (NM_007695, 100 mg/kg, vs vehicle): 2.58
Col1a2 Log2FC (NM_007743, 100 mg/kg, vs vehicle): −0.588
Cox6a1 Log2FC (NM_007748, 100 mg/kg, vs vehicle): 0.336
Cox7c Log2FC (NM_007749, 100 mg/kg, vs vehicle): 0.459
Crp Log2FC (NM_007768, 100 mg/kg, vs vehicle): −0.857
Ctsb Log2FC (NM_007798, 100 mg/kg, vs vehicle): −0.216
Cybb Log2FC (NM_007807, 100 mg/kg, vs vehicle): −0.644
Cyp2c29 Log2FC (NM_007815, 100 mg/kg, vs vehicle): −0.646
Cyp7a1 Log2FC (NM_007824, 100 mg/kg, vs vehicle): −1.38
Diaph1 Log2FC (NM_007858, 100 mg/kg, vs vehicle): −0.265
Ephx2 Log2FC (NM_007940, 100 mg/kg, vs vehicle): 0.562
F5 Log2FC (NM_007976, 100 mg/kg, vs vehicle): −0.29
Fas Log2FC (NM_007987, 100 mg/kg, vs vehicle): 0.226
Fasn Log2FC (NM_007988, 100 mg/kg, vs vehicle): 1.09
Slc37a4 Log2FC (NM_008063, 100 mg/kg, vs vehicle): −0.843
Gas1 Log2FC (NM_008086, 100 mg/kg, vs vehicle): −0.696
Gpc4 Log2FC (NM_008150, 100 mg/kg, vs vehicle): −0.381
Hadh Log2FC (NM_008212, 100 mg/kg, vs vehicle): 0.258
Hsd11b1 Log2FC (NM_008288, 100 mg/kg, vs vehicle): −1.23
Hsd17b4 Log2FC (NM_008292, 100 mg/kg, vs vehicle): 0.446
Irf8 Log2FC (NM_008320, 100 mg/kg, vs vehicle): −0.357
Il10ra Log2FC (NM_008348, 100 mg/kg, vs vehicle): −0.578
Itch Log2FC (NM_008395, 100 mg/kg, vs vehicle): −0.295
Kikb1 Log2FC (NM_008455, 100 mg/kg, vs vehicle): −0.217
Lpl Log2FC (NM_008509, 100 mg/kg, vs vehicle): 1.8
Lrp1 Log2FC (NM_008512, 100 mg/kg, vs vehicle): −0.376
Cd180 Log2FC (NM_008533, 100 mg/kg, vs vehicle): −0.606
Masp1 Log2FC (NM_008555, 100 mg/kg, vs vehicle): −0.26
Anapc1 Log2FC (NM_008569, 100 mg/kg, vs vehicle): −0.316
Mmp12 Log2FC (NM_008605, 100 mg/kg, vs vehicle): −2.05
Mmp14 Log2FC (NM_008608, 100 mg/kg, vs vehicle): −0.465
Nedd8 Log2FC (NM_008683, 100 mg/kg, vs vehicle): 0.0875
Pcx Log2FC (NM_008797, 100 mg/kg, vs vehicle): −0.521
Plcb3 Log2FC (NM_008874, 100 mg/kg, vs vehicle): −0.297
Plg Log2FC (NM_008877, 100 mg/kg, vs vehicle): −0.296
Ppm1a Log2FC (NM_008910, 100 mg/kg, vs vehicle): 0.136
Map2k1 Log2FC (NM_008927, 100 mg/kg, vs vehicle): −0.177
Saa1/2 Log2FC (NM_009117, 100 mg/kg, vs vehicle): −1.96
Scd1 Log2FC (NM_009127, 100 mg/kg, vs vehicle): 0.602
Scd2 Log2FC (NM_009128, 100 mg/kg, vs vehicle): 0.949
Sorbs1 Log2FC (NM_009166, 100 mg/kg, vs vehicle): −0.302
Sem1 Log2FC (NM_009169, 100 mg/kg, vs vehicle): 0.298
Ssr4 Log2FC (NM_009279, 100 mg/kg, vs vehicle): −0.228
Tgfbr1 Log2FC (NM_009370, 100 mg/kg, vs vehicle): −0.309
Traf2 Log2FC (NM_009422, 100 mg/kg, vs vehicle): −0.346
Tnfsf10 Log2FC (NM_009425, 100 mg/kg, vs vehicle): −0.692
Axl Log2FC (NM_009465, 100 mg/kg, vs vehicle): −0.418
Ap1g1 Log2FC (NM_009677, 100 mg/kg, vs vehicle): −0.189
Apoa1 Log2FC (NM_009692, 100 mg/kg, vs vehicle): −0.481
Apob Log2FC (NM_009693, 100 mg/kg, vs vehicle): −0.227
Bcl2l1 Log2FC (NM_009743, 100 mg/kg, vs vehicle): −0.248
Serping1 Log2FC (NM_009776, 100 mg/kg, vs vehicle): −0.66
C3ar1 Log2FC (NM_009779, 100 mg/kg, vs vehicle): −0.825
Calm1 Log2FC (NM_009790, 100 mg/kg, vs vehicle): −0.327
Casp3 Log2FC (NM_009810, 100 mg/kg, vs vehicle): −0.237
Serpinh1 Log2FC (NM_009825, 100 mg/kg, vs vehicle): −0.531
Cdk4 Log2FC (NM_009870, 100 mg/kg, vs vehicle): 0.181
Cfh Log2FC (NM_009888, 100 mg/kg, vs vehicle): −1.41
Col3a1 Log2FC (NM_009930, 100 mg/kg, vs vehicle): −0.679
Csnk2b Log2FC (NM_009975, 100 mg/kg, vs vehicle): 0.0913
Ctsd Log2FC (NM_009983, 100 mg/kg, vs vehicle): 0.331
Cyp4a10/31/32 Log2FC (NM_010011, 100 mg/kg, vs vehicle): 2.88
Fcer1g Log2FC (NM_010185, 100 mg/kg, vs vehicle): −0.427
Fn1 Log2FC (NM_010233, 100 mg/kg, vs vehicle): −0.584
Got2 Log2FC (NM_010325, 100 mg/kg, vs vehicle): 0.156
H2-Aa Log2FC (NM_010378, 100 mg/kg, vs vehicle): −0.4
H2-D1 Log2FC (NM_010380, 100 mg/kg, vs vehicle): −0.175
H2-T23 Log2FC (NM_010398, 100 mg/kg, vs vehicle): −0.224
Hck Log2FC (NM_010407, 100 mg/kg, vs vehicle): −0.667
Hif1a Log2FC (NM_010431, 100 mg/kg, vs vehicle): 0.283
Hmox1 Log2FC (NM_010442, 100 mg/kg, vs vehicle): −0.484
Hsp90aa1 Log2FC (NM_010480, 100 mg/kg, vs vehicle): 0.361
Icam1 Log2FC (NM_010493, 100 mg/kg, vs vehicle): −0.382
Ikbkb Log2FC (NM_010546, 100 mg/kg, vs vehicle): −0.526
II6st Log2FC (NM_010560, 100 mg/kg, vs vehicle): −0.296
Ilk Log2FC (NM_010562, 100 mg/kg, vs vehicle): −0.109
Itgb1 Log2FC (NM_010578, 100 mg/kg, vs vehicle): 0.143
Fabp5 Log2FC (NM_010634, 100 mg/kg, vs vehicle): 1.44
Lepr Log2FC (NM_010704, 100 mg/kg, vs vehicle): 0.604
Psmb8 Log2FC (NM_010724, 100 mg/kg, vs vehicle): −0.801
Lyn Log2FC (NM_010747, 100 mg/kg, vs vehicle): −0.295
Marco Log2FC (NM_010766, 100 mg/kg, vs vehicle): −1.54
P4hb Log2FC (NM_011032, 100 mg/kg, vs vehicle): −0.765
Pck1 Log2FC (NM_011044, 100 mg/kg, vs vehicle): −1.99
Pitp Log2FC (NM_011125, 100 mg/kg, vs vehicle): 1.37
Pparg Log2FC (NM_011146, 100 mg/kg, vs vehicle): −0.592
Prkdc Log2FC (NM_011159, 100 mg/kg, vs vehicle): −0.525
Pros1 Log2FC (NM_011173, 100 mg/kg, vs vehicle): −0.208
Lgmn Log2FC (NM_011175, 100 mg/kg, vs vehicle): −0.601
Ptprc Log2FC (NM_011210, 100 mg/kg, vs vehicle): −0.47
S100a4 Log2FC (NM_011311, 100 mg/kg, vs vehicle): −0.79
Serpinf1 Log2FC (NM_011340, 100 mg/kg, vs vehicle): −0.208
Sod1 Log2FC (NM_011434, 100 mg/kg, vs vehicle): 0.284
Srebf1 Log2FC (NM_011480, 100 mg/kg, vs vehicle): −0.634
Thbs2 Log2FC (NM_011581, 100 mg/kg, vs vehicle): −1.01
Timp2 Log2FC (NM_011594, 100 mg/kg, vs vehicle): −0.451
Tjp2 Log2FC (NM_011597, 100 mg/kg, vs vehicle): 0.199
Tln1 Log2FC (NM_011602, 100 mg/kg, vs vehicle): −0.355
Vegfb Log2FC (NM_011697, 100 mg/kg, vs vehicle): 0.521
Adh4 Log2FC (NM_011996, 100 mg/kg, vs vehicle): −0.855
Bcap31 Log2FC (NM_012060, 100 mg/kg, vs vehicle): −0.145
C9 Log2FC (NM_013485, 100 mg/kg, vs vehicle): −1.25
